Results from PubChem BioAssay AID1259407 (Chemical Carcinogenesis Research Information System (CCRIS), 2018).
Activity calls are given as the source filed them. The rule behind the calls is not given here.

Tested on: CCRIS mutagenicity, Ames/micronucleus/aberration tests
Assay: CCRIS mutagenicity studies
From the text: The CCRIS database contains chemical records with carcinogenicity, mutagenicity, tumor promotion, and tumor inhibition test results. It was developed by the National Cancer Institute (NCI). Data are derived from studies cited in primary journals, current awareness tools, NCI reports, and other sources. Test results have been reviewed by experts in carcinogenesis and mutagenesis.
CCRIS provides historical information from the years 1985 - 2011. It is no longer updated.
This is an archive assay for CCRIS mutagenicity studies.

Measured: mutagenic call

Cc1ccccc1Cl
inactive: Test System: AMES SALMONELLA TYPHIMURIUM, Strain/Indicator: TA98, Metabolic Activation: HAMSTER, LIVER, S-9, AROCLOR 1254, Method: STANDARD PLATE inactive; negative | Test System: AMES SALMONELLA TYPHIMURIUM, Strain/Indicator: TA98, Metabolic Activation: NONE, Method: PREINCUBATION inactive; negative | Test System: AMES SALMONELLA TYPHIMURIUM, Strain/Indicator: TA98, Metabolic Activation: NONE, Method: STANDARD PLATE inactive; negative | Test System: AMES SALMONELLA TYPHIMURIUM, Strain/Indicator: TA98, Metabolic Activation: RAT LIVER S-9, PHENOBARBITAL AND BETA-NAPHTHOFLAVONE, Method: PREINCUBATION inactive; negative | Test System: AMES SALMONELLA TYPHIMURIUM, Strain/Indicator: TA98, Metabolic Activation: RAT, LIVER, S-9, AROCLOR 1254, Method: STANDARD PLATE inactive; negative | Test System: AMES SALMONELLA TYPHIMURIUM, Strain/Indicator: TA100, Metabolic Activation: HAMSTER, LIVER, S-9, AROCLOR 1254, Method: STANDARD PLATE inactive; negative | Test System: AMES SALMONELLA TYPHIMURIUM, Strain/Indicator: TA100, Metabolic Activation: NONE, Method: PREINCUBATION inactive; negative | Test System: AMES SALMONELLA TYPHIMURIUM, Strain/Indicator: TA100, Metabolic Activation: NONE, Method: STANDARD PLATE inactive; negative | Test System: AMES SALMONELLA TYPHIMURIUM, Strain/Indicator: TA100, Metabolic Activation: RAT LIVER S-9, PHENOBARBITAL AND BETA-NAPHTHOFLAVONE, Method: PREINCUBATION inactive; negative | Test System: AMES SALMONELLA TYPHIMURIUM, Strain/Indicator: TA100, Metabolic Activation: RAT, LIVER, S-9, AROCLOR 1254, Method: STANDARD PLATE inactive; negative | Test System: AMES SALMONELLA TYPHIMURIUM, Strain/Indicator: TA102, Metabolic Activation: NONE, Method: PREINCUBATION inactive; negative | Test System: AMES SALMONELLA TYPHIMURIUM, Strain/Indicator: TA102, Metabolic Activation: RAT LIVER S-9, PHENOBARBITAL AND BETA-NAPHTHOFLAVONE, Method: PREINCUBATION inactive; negative | Test System: AMES SALMONELLA TYPHIMURIUM, Strain/Indicator: TA104, Metabolic Activation: NONE, Method: PREINCUBATION inactive; negative | Test System: AMES SALMONELLA TYPHIMURIUM, Strain/Indicator: TA104, Metabolic Activation: RAT LIVER S-9, PHENOBARBITAL AND BETA-NAPHTHOFLAVONE, Method: PREINCUBATION inactive; negative | Test System: AMES SALMONELLA TYPHIMURIUM, Strain/Indicator: TA1535, Metabolic Activation: HAMSTER, LIVER, S-9, AROCLOR 1254, Method: STANDARD PLATE inactive; negative | Test System: AMES SALMONELLA TYPHIMURIUM, Strain/Indicator: TA1535, Metabolic Activation: NONE, Method: PREINCUBATION inactive; negative | Test System: AMES SALMONELLA TYPHIMURIUM, Strain/Indicator: TA1535, Metabolic Activation: NONE, Method: STANDARD PLATE inactive; negative | Test System: AMES SALMONELLA TYPHIMURIUM, Strain/Indicator: TA1535, Metabolic Activation: RAT LIVER S-9, PHENOBARBITAL AND BETA-NAPHTHOFLAVONE, Method: PREINCUBATION inactive; negative | Test System: AMES SALMONELLA TYPHIMURIUM, Strain/Indicator: TA1535, Metabolic Activation: RAT, LIVER, S-9, AROCLOR 1254, Method: STANDARD PLATE inactive; negative | Test System: AMES SALMONELLA TYPHIMURIUM, Strain/Indicator: TA1537, Metabolic Activation: HAMSTER, LIVER, S-9, AROCLOR 1254, Method: STANDARD PLATE inactive; negative | Test System: AMES SALMONELLA TYPHIMURIUM, Strain/Indicator: TA1537, Metabolic Activation: NONE, Method: PREINCUBATION inactive; negative | Test System: AMES SALMONELLA TYPHIMURIUM, Strain/Indicator: TA1537, Metabolic Activation: NONE, Method: STANDARD PLATE inactive; negative | Test System: AMES SALMONELLA TYPHIMURIUM, Strain/Indicator: TA1537, Metabolic Activation: RAT LIVER S-9, PHENOBARBITAL AND BETA-NAPHTHOFLAVONE, Method: PREINCUBATION inactive; negative | Test System: AMES SALMONELLA TYPHIMURIUM, Strain/Indicator: TA1537, Metabolic Activation: RAT, LIVER, S-9, AROCLOR 1254, Method: STANDARD PLATE inactive; negative | Test System: AMES SALMONELLA TYPHIMURIUM, Strain/Indicator: TA1538, Metabolic Activation: HAMSTER, LIVER, S-9, AROCLOR 1254, Method: STANDARD PLATE inactive; negative | Test System: AMES SALMONELLA TYPHIMURIUM, Strain/Indicator: TA1538, Metabolic Activation: NONE, Method: PREINCUBATION inactive; negative | Test System: AMES SALMONELLA TYPHIMURIUM, Strain/Indicator: TA1538, Metabolic Activation: NONE, Method: STANDARD PLATE inactive; negative | Test System: AMES SALMONELLA TYPHIMURIUM, Strain/Indicator: TA1538, Metabolic Activation: RAT LIVER S-9, PHENOBARBITAL AND BETA-NAPHTHOFLAVONE, Method: PREINCUBATION inactive; negative | Test System: AMES SALMONELLA TYPHIMURIUM, Strain/Indicator: TA1538, Metabolic Activation: RAT, LIVER, S-9, AROCLOR 1254, Method: STANDARD PLATE inactive; negative | Test System: E. COLI, Strain/Indicator: WP2UVRA/PKM101, Metabolic Activation: RAT LIVER S-9, PHENOBARBITAL AND BETA-NAPHTHOFLAVONE, Method: PREINCUBATION inactive; negative | Test System: E. COLI, Strain/Indicator: WP2UVRA, Metabolic Activation: NONE, Method: PREINCUBATION inactive; negative | Test System: E. COLI, Strain/Indicator: WP2UVRA, Metabolic Activation: RAT LIVER S-9, PHENOBARBITAL AND BETA-NAPHTHOFLAVONE, Method: PREINCUBATION inactive; negative | Test System: E.COLI, Strain/Indicator: WP2UVRA/PKM101, Metabolic Activation: NONE, Method: PREINCUBATION inactive; negative | Test System: Mouse lymphoma, Strain/Indicator: L5178Y (tk+/tk-), Metabolic Activation: None, Method: Suspension/plate inactive; negative | Test System: Mouse lymphoma, Strain/Indicator: L5178Y (tk+/tk-), Metabolic Activation: Rat, Liver, S-9, Aroclor 1254, Method: Suspension/plate inactive; negative
